Source: patent US4293489A, “Derivatives of A-30912A nucleus” (Eli Lilly and Company, priority 1980, dated 1981)
Starred links: 1 amine or outer side, 2 acyl side, 3 side chain; linkers in the order of their positions; H or OH if unused. Positions of bridges follow the written chain, without caps; N, C: chain ends. Non-standard residues stand in square brackets, D forms with d. Residues, ends and D or L forms follow the SMILES beside them. *: point of attachment. Orn(4R-OH,5R-OH) = O=C([C@H](C[C@@H](O)[C@@H](O)N[*:3])N[*:1])[*:2]; hTyr(3S-OH,4S-OH) = N[C@H](C(=O)O)[C@H](O)[C@@H](O)c1ccc(O)cc1; Pro(3S-OH,4S-Me) = C[C@H]1CN[C@H](C(=O)O)[C@H]1O; Benzoyl(4-octyloxy) = CCCCCCCCOc1ccc(C(=O)*)cc1; X2 = CCCCCCCCCCCCCCS(=O)(=O)c1ccc(C(=O)*)cc1; X5 = CCCCCCCCCCCCS(=O)(=O)c1ccc(C(=O)*)cc1; X4 = CCCCCCCCCCS(=O)(=O)c1ccc(C(=O)*)cc1; X23 = CCCCCCCCS(=O)(=O)c1ccc(C(=O)*)cc1; X22 = CCCCCCCCCCCCOc1ccc(CCC(=O)*)cc1; X10 = CCCCCCCCCCCCOc1cccc(C(=O)*)c1; X1 = CCCCCCCCCCCCSc1ccc(C(=O)*)cc1; X16 = CCCCCCCCOc1ccc(C=CC(=O)*)cc1; Hyp = O=C(O)[C@@H]1C[C@@H](O)CN1; X15 = CCCCCCCCOc1cccc(CC(=O)*)c1; X19 = CCCCCCOc1ccc(C=CC(=O)*)cc1; X6 = CCCCCCCCCCSc1ccc(C(=O)*)cc1; X9 = CCCCCCCCCCOc1cccc(C(=O)*)c1; X12 = CCCCCCOc1ccc(CCC(=O)*)cc1; X13 = CCCCCCCCOc1cccc(C(=O)*)c1; X30 = CCCCCCCCOc1ccc(C(=O)*)cn1; X26 = CCCCCOc1ccc(CCC(=O)*)cc1; X7 = CCCCCCCCSc1ccc(C(=O)*)cc1

Assays:
[1] = test system: Candida albicans A-26; test: Agar plate disc diffusion test, MIC per disc; type: cell-based; conditions: 0.1M sodium borate, pH 7.5, 24 hours, 30° C.
Protocol: (§1) Tables 10 and 11 give the results of the testing in vitro of the compounds of Examples 3 and 4 by agar-plate disc-diffusion methods. In Table 10 activity is measured by the size (diameter in mm) of the observed zone of inhibition of the microorganism produced by the test compound. In Table 11, activity is measured by the minimal inhibitory concentration (MIC) of the substance (μg/disc) required to inhibit growth of the test organism. Table 12 gives the results of the testing in vitro of the p-(n-octyloxy)benzoyl derivative of A30912A nucleus [Formula III, R^1 is p-(n-octyloxy)benzoyl] against five strains of Candida albicans by the agar dilution method. In Table 12 activity is measured by the minimal inhibitory concentration (MIC) of the substance (μg/ml) required to inhibit the test organism.
(§2) ^(a) Compounds were suspended in 0.1M sodium borate solution, pH 7.5.
(§3) The compounds were tested at 20 μg/disc at top level and at twofold
(§4) dilutions until end points were reached. Incubation: 24 hours; 30°

[2] = test system: Trychophyton mentagrophyes #6; test: Agar plate disc diffusion test, MIC per disc; type: cell-based, Trichophyton mentagrophytes; conditions: 0.1M sodium borate, pH 7.5, 24 hours, 30° C., * measurable zones with regrowth of organism around disc
Protocol: as §1, §2, §3, §4
*Measurable zones of inhibition with regrowth of organism around disc.

| Structure (SMILES) | MIC [1] [μg/disc] | MIC [2] [μg/disc] |
| --- | --- | --- |
| CCCCCCCCCCCCOc1ccc(CCC(=O)N[C@H]2C[C@@H](O)[C@@H](O)NC(=O)[C@@H]3[C@@H](O)[C@@H](C)CN3C(=O)[C@H]([C@@H](C)O)NC(=O)[C@H]([C@H](O)[C@@H](O)c3ccc(O)cc3)NC(=O)[C@@H]3C[C@@H](O)CN3C(=O)[C@H]([C@@H](C)O)NC2=O)cc1 [drawing 137] (X22-[Orn(4R-OH,5R-OH)]T[Hyp][hTyr(3S-OH,4S-OH)]T[Pro(3S-OH,4S-Me)]; lactam 1-C) | 0.312 | 0.156 |
| CCCCCCOc1ccc(CCC(=O)N[C@H]2C[C@@H](O)[C@@H](O)NC(=O)[C@@H]3[C@@H](O)[C@@H](C)CN3C(=O)[C@H]([C@@H](C)O)NC(=O)[C@H]([C@H](O)[C@@H](O)c3ccc(O)cc3)NC(=O)[C@@H]3C[C@@H](O)CN3C(=O)[C@H]([C@@H](C)O)NC2=O)cc1 [drawing 135] (X12-[Orn(4R-OH,5R-OH)]T[Hyp][hTyr(3S-OH,4S-OH)]T[Pro(3S-OH,4S-Me)]; lactam 1-C) | 0.625 | 0.156 |
| CCCCCCCCOc1cccc(C(=O)N[C@H]2C[C@@H](O)[C@@H](O)NC(=O)[C@@H]3[C@@H](O)[C@@H](C)CN3C(=O)[C@H]([C@@H](C)O)NC(=O)[C@H]([C@H](O)[C@@H](O)c3ccc(O)cc3)NC(=O)[C@@H]3C[C@@H](O)CN3C(=O)[C@H]([C@@H](C)O)NC2=O)c1 [drawing 127] (X13-[Orn(4R-OH,5R-OH)]T[Hyp][hTyr(3S-OH,4S-OH)]T[Pro(3S-OH,4S-Me)]; lactam 1-C) | 10 | > 40 |
| CCCCCCCCOc1cccc(CC(=O)N[C@H]2C[C@@H](O)[C@@H](O)NC(=O)[C@@H]3[C@@H](O)[C@@H](C)CN3C(=O)[C@H]([C@@H](C)O)NC(=O)[C@H]([C@H](O)[C@@H](O)c3ccc(O)cc3)NC(=O)[C@@H]3C[C@@H](O)CN3C(=O)[C@H]([C@@H](C)O)NC2=O)c1 [drawing 141] (X15-[Orn(4R-OH,5R-OH)]T[Hyp][hTyr(3S-OH,4S-OH)]T[Pro(3S-OH,4S-Me)]; lactam 1-C) | 5 | 80 |
| CCCCCCOc1ccc(C=CC(=O)N[C@H]2C[C@@H](O)[C@@H](O)NC(=O)[C@@H]3[C@@H](O)[C@@H](C)CN3C(=O)[C@H]([C@@H](C)O)NC(=O)[C@H]([C@H](O)[C@@H](O)c3ccc(O)cc3)NC(=O)[C@@H]3C[C@@H](O)CN3C(=O)[C@H]([C@@H](C)O)NC2=O)cc1 [drawing 139] (X19-[Orn(4R-OH,5R-OH)]T[Hyp][hTyr(3S-OH,4S-OH)]T[Pro(3S-OH,4S-Me)]; lactam 1-C) | 1.25 | 0.156 |
| CCCCCCCCOc1ccc(C(=O)N[C@H]2C[C@@H](O)[C@@H](O)NC(=O)[C@@H]3[C@@H](O)[C@@H](C)CN3C(=O)[C@H]([C@@H](C)O)NC(=O)[C@H]([C@H](O)[C@@H](O)c3ccc(O)cc3)NC(=O)[C@@H]3C[C@@H](O)CN3C(=O)[C@H]([C@@H](C)O)NC2=O)cn1 (X30-[Orn(4R-OH,5R-OH)]T[Hyp][hTyr(3S-OH,4S-OH)]T[Pro(3S-OH,4S-Me)]; lactam 1-C) | 80 | 2.5 |
| CCCCCCCCSc1ccc(C(=O)N[C@H]2C[C@@H](O)[C@@H](O)NC(=O)[C@@H]3[C@@H](O)[C@@H](C)CN3C(=O)[C@H]([C@@H](C)O)NC(=O)[C@H]([C@H](O)[C@@H](O)c3ccc(O)cc3)NC(=O)[C@@H]3C[C@@H](O)CN3C(=O)[C@H]([C@@H](C)O)NC2=O)cc1 [drawing 119] (X7-[Orn(4R-OH,5R-OH)]T[Hyp][hTyr(3S-OH,4S-OH)]T[Pro(3S-OH,4S-Me)]; lactam 1-C) | 0.312 | < 0.039 |
| CCCCCCCCCCCCSc1ccc(C(=O)N[C@H]2C[C@@H](O)[C@@H](O)NC(=O)[C@@H]3[C@@H](O)[C@@H](C)CN3C(=O)[C@H]([C@@H](C)O)NC(=O)[C@H]([C@H](O)[C@@H](O)c3ccc(O)cc3)NC(=O)[C@@H]3C[C@@H](O)CN3C(=O)[C@H]([C@@H](C)O)NC2=O)cc1 [drawing 121] (X1-[Orn(4R-OH,5R-OH)]T[Hyp][hTyr(3S-OH,4S-OH)]T[Pro(3S-OH,4S-Me)]; lactam 1-C) | 2.5 | < 0.039 |
| CCCCCCCCCCCCOc1cccc(C(=O)N[C@H]2C[C@@H](O)[C@@H](O)NC(=O)[C@@H]3[C@@H](O)[C@@H](C)CN3C(=O)[C@H]([C@@H](C)O)NC(=O)[C@H]([C@H](O)[C@@H](O)c3ccc(O)cc3)NC(=O)[C@@H]3C[C@@H](O)CN3C(=O)[C@H]([C@@H](C)O)NC2=O)c1 [drawing 129] (X10-[Orn(4R-OH,5R-OH)]T[Hyp][hTyr(3S-OH,4S-OH)]T[Pro(3S-OH,4S-Me)]; lactam 1-C) | 2.5 | > 40 |
| CCCCCCCCCCCCCCS(=O)(=O)c1ccc(C(=O)N[C@H]2C[C@@H](O)[C@@H](O)NC(=O)[C@@H]3[C@@H](O)[C@@H](C)CN3C(=O)[C@H]([C@@H](C)O)NC(=O)[C@H]([C@H](O)[C@@H](O)c3ccc(O)cc3)NC(=O)[C@@H]3C[C@@H](O)CN3C(=O)[C@H]([C@@H](C)O)NC2=O)cc1 [drawing 126] (X2-[Orn(4R-OH,5R-OH)]T[Hyp][hTyr(3S-OH,4S-OH)]T[Pro(3S-OH,4S-Me)]; lactam 1-C) | 0.625 | 0.039 |
| CCCCCCCCCCOc1cccc(C(=O)N[C@H]2C[C@@H](O)[C@@H](O)NC(=O)[C@@H]3[C@@H](O)[C@@H](C)CN3C(=O)[C@H]([C@@H](C)O)NC(=O)[C@H]([C@H](O)[C@@H](O)c3ccc(O)cc3)NC(=O)[C@@H]3C[C@@H](O)CN3C(=O)[C@H]([C@@H](C)O)NC2=O)c1 [drawing 128] (X9-[Orn(4R-OH,5R-OH)]T[Hyp][hTyr(3S-OH,4S-OH)]T[Pro(3S-OH,4S-Me)]; lactam 1-C) | 2.5 | > 40 |
| CCCCCCCCS(=O)(=O)c1ccc(C(=O)N[C@H]2C[C@@H](O)[C@@H](O)NC(=O)[C@@H]3[C@@H](O)[C@@H](C)CN3C(=O)[C@H]([C@@H](C)O)NC(=O)[C@H]([C@H](O)[C@@H](O)c3ccc(O)cc3)NC(=O)[C@@H]3C[C@@H](O)CN3C(=O)[C@H]([C@@H](C)O)NC2=O)cc1 [drawing 123] (X23-[Orn(4R-OH,5R-OH)]T[Hyp][hTyr(3S-OH,4S-OH)]T[Pro(3S-OH,4S-Me)]; lactam 1-C) | 20 | 0.312 |
| CCCCCOc1ccc(CCC(=O)N[C@H]2C[C@@H](O)[C@@H](O)NC(=O)[C@@H]3[C@@H](O)[C@@H](C)CN3C(=O)[C@H]([C@@H](C)O)NC(=O)[C@H]([C@H](O)[C@@H](O)c3ccc(O)cc3)NC(=O)[C@@H]3C[C@@H](O)CN3C(=O)[C@H]([C@@H](C)O)NC2=O)cc1 (X26-[Orn(4R-OH,5R-OH)]T[Hyp][hTyr(3S-OH,4S-OH)]T[Pro(3S-OH,4S-Me)]; lactam 1-C) | 5 | 0.156 |
| CCCCCCCCCCCCS(=O)(=O)c1ccc(C(=O)N[C@H]2C[C@@H](O)[C@@H](O)NC(=O)[C@@H]3[C@@H](O)[C@@H](C)CN3C(=O)[C@H]([C@@H](C)O)NC(=O)[C@H]([C@H](O)[C@@H](O)c3ccc(O)cc3)NC(=O)[C@@H]3C[C@@H](O)CN3C(=O)[C@H]([C@@H](C)O)NC2=O)cc1 [drawing 125] (X5-[Orn(4R-OH,5R-OH)]T[Hyp][hTyr(3S-OH,4S-OH)]T[Pro(3S-OH,4S-Me)]; lactam 1-C) | 0.625 | 0.078 |
| CCCCCCCCOc1ccc(C(=O)N[C@H]2C[C@@H](O)[C@@H](O)NC(=O)[C@@H]3[C@@H](O)[C@@H](C)CN3C(=O)[C@H]([C@@H](C)O)NC(=O)[C@H]([C@H](O)[C@@H](O)c3ccc(O)cc3)NC(=O)[C@@H]3C[C@@H](O)CN3C(=O)[C@H]([C@@H](C)O)NC2=O)cc1 [drawing 115] ({Benzoyl(4-octyloxy)}-[Orn(4R-OH,5R-OH)]T[Hyp][hTyr(3S-OH,4S-OH)]T[Pro(3S-OH,4S-Me)]; lactam 1-C) | 0.156 | < 0.039 |
| CCCCCCCCOc1ccc(C=CC(=O)N[C@H]2C[C@@H](O)[C@@H](O)NC(=O)[C@@H]3[C@@H](O)[C@@H](C)CN3C(=O)[C@H]([C@@H](C)O)NC(=O)[C@H]([C@H](O)[C@@H](O)c3ccc(O)cc3)NC(=O)[C@@H]3C[C@@H](O)CN3C(=O)[C@H]([C@@H](C)O)NC2=O)cc1 [drawing 140] (X16-[Orn(4R-OH,5R-OH)]T[Hyp][hTyr(3S-OH,4S-OH)]T[Pro(3S-OH,4S-Me)]; lactam 1-C) | 0.156 | 0.156 |
| CCCCCCCCCCS(=O)(=O)c1ccc(C(=O)N[C@H]2C[C@@H](O)[C@@H](O)NC(=O)[C@@H]3[C@@H](O)[C@@H](C)CN3C(=O)[C@H]([C@@H](C)O)NC(=O)[C@H]([C@H](O)[C@@H](O)c3ccc(O)cc3)NC(=O)[C@@H]3C[C@@H](O)CN3C(=O)[C@H]([C@@H](C)O)NC2=O)cc1 [drawing 124] (X4-[Orn(4R-OH,5R-OH)]T[Hyp][hTyr(3S-OH,4S-OH)]T[Pro(3S-OH,4S-Me)]; lactam 1-C) | 2.5 | 0.156 |
| CCCCCCCCCCSc1ccc(C(=O)N[C@H]2C[C@@H](O)[C@@H](O)NC(=O)[C@@H]3[C@@H](O)[C@@H](C)CN3C(=O)[C@H]([C@@H](C)O)NC(=O)[C@H]([C@H](O)[C@@H](O)c3ccc(O)cc3)NC(=O)[C@@H]3C[C@@H](O)CN3C(=O)[C@H]([C@@H](C)O)NC2=O)cc1 [drawing 120] (X6-[Orn(4R-OH,5R-OH)]T[Hyp][hTyr(3S-OH,4S-OH)]T[Pro(3S-OH,4S-Me)]; lactam 1-C) | 0.156 | 0.039 |
